The text below walks through data of patent publication US6337087B1, “Aqueous pharmaceutical composition comprising an active ingredient which is highly insoluble in water” (Aziende Chimiche Riunite Angelini Francesco A.C.R.A.F. …, priority 1997, dated 2002).

A short description of the data set: initial solubility of the active ingredient. It counts as physicochemical. To be noted: active ingredient without liposomes, aqueous.

In brackets after ≈: the same amount, converted by molar mass.

One may read the solubility as the concentration that dissolves in the medium under given conditions. Low values mean a poorly soluble substance, high ones a readily soluble substance. Compound `O=C(O)c1nn(Cc2ccc(Cl)cc2Cl)c2ccccc12` [lonidamine] had a solubility of 3 µg/mL (≈ 9.34 µM).
